For data set [1], the target named is Shiga-like toxin II (SLT II) (Escherichia phage 933W, UniProt P09386). In kind it is cell-based, E. coli O157:H7.
A short description of data set [2]: Toxicity of globotriose administered to mice (previous pharmacokinetic studies).
A short description of data set [3]: Pharmacokinetics of globotriose in mice after IV or oral administration.
Data set [4] concerns the target Shiga-like toxin I (SLT I) (Bacteriophage H30, UniProt P69178).

Chain of Shiga-like toxin I (SLT I) (P69178 whole entry, looked up): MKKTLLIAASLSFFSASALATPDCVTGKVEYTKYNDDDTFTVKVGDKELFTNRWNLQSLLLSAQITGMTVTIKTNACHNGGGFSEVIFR
Chain of Shiga-like toxin II (SLT II) (P09386 whole entry, looked up): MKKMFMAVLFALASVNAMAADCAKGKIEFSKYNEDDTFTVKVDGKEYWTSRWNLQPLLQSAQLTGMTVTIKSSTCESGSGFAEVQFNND

On to `OC[C@H]1O[C@H](O[C@@H]2[C@H](O)[C@@H](O)[C@H](O[C@H]3[C@H](O)[C@@H](O)C(O)O[C@@H]3CO)O[C@@H]2CO)[C@H](O)[C@@H](O)[C@H]1O` (stereo partly drawn) [globotriose, galactose α1,4 galactose β1,4 glucose], for which, in data set [1], the “inhibition of cell death from SLT II” value is 8%. Besides, the “toxic effects after intravenous administration” value in data set [2] (intravenously 333 mg/kg) was “no toxic effects”. For the same compound, the “toxic effects after oral administration” value in data set [2] (orally 3333 mg/kg) is on record as “no toxic effects”. Further, in data set [3] (IV administered), the clearance kinetics entry is “bi-exponential clearance kinetics” and the “time over which excreted through the kidneys” value is greater than 24 h. Moreover, in data set [3] (orally administered), the “bioavailable (oral dose crossed into circulation)” value was “approximately 10%”; the “excreted in the urine, time post-dose” value was “up to 48 hours”; the “fate of the majority of orally administered dose” value is recorded as “excreted into the feces unmetabolized”; the kinetics entry is “bi-exponential kinetics”. In data set [4], the “inhibition of cell death from SLT I” value turned out to be 52% and the “reduction of cytotoxicity (SLT I), toxin pre-attached” value was 33%.

The record behind these values is patent US6596707B2, “Monovalent saccharides and uses thereof” (priority 2001, dated 2003).
